# Measurements from patent US12527884B2, “Use of cyclodextrins as a radiostabilizer” (GE Healthcare Limited, priority 2019, dated 2026).
# What was measured:
# [1] = Radiochemical purity (RCP) and [18F]fluoride of formulated [18F]flurpiridaz during storage (radio TLC or HPLC); format: physicochemical
# Method: Radiochemical purity (RCP) is determined using radio TLC or HPLC and can be defined as the ratio of the (radio-labelled) drug substance peak to the total (radio-labelled) peaks in the chromatogram. If one manufactures a radiopharmaceutical with high radioactive concentration (RAC), the drop in RCP during storage is likely to be higher than at lower RAC due to more radiolysis. High radioactivity results in the drug substance destroying itself (i.e. radiolysis). The most efficient stabilizer can be identified by preparing different formulations of radiopharmaceuticals at similar RAC and comparing the drop in RCP over time, typically 8-10 hours for ^18F compounds.
# The first 45 mL product vial was composed of water (42 mL), ethanol (3 mL), calcium disodium edetate (0.25 mg/mL), ascorbic acid (50 mg/mL) and sodium hydroxide (7.5 mg/mL). […]
# [2] = Aqueous solubility of flurpiridaz with HPbCD; format: physicochemical
smiles,measurement,setting,value
"CC(C)(C)n1ncc(OCc2ccc(COCCF)cc2)c(Cl)c1=O [[^18F]flurpiridaz, flurpiridaz]",radiostability,[1]; 30 mg/mL ascorbic acid and 40 mg/mL HPbCD vs 50 mg/mL ascorbic acid without HPbCD,equal or better
same,change in RCP over 4 to 10 h (FIG. 2),"[1]; 30 to 50 mg/mL ascorbic acid (pH ~6), with or without 40-47 mg/mL HPbCD, ca. 7% (v/v) ethanol, 0-21% (v/v) oxygen headspace",reduction
same,aqueous solubility,[2],improves
